Measured values taken from patent US10251884B2, “Treatment of cancer and benign proliferative disorders” (The University of Manchester, priority 2013, dated 2019).
Marks after values point to notes of the source that are not given here.

Assays:
CIN2 lesions = settings: young women aged 18-29; topical, physician applied, 16 weeks; cited from earlier work
HPV infection = settings: hybrid capture 2 assay; cited from earlier work
CIN2/3 = settings: topical application; cited from earlier work
HeLa cells = assay: Apoptosis by V450 Annexin V / propidium iodide flow cytometry; type: cell-based
Description: Staining with V450 Annexin V (BD Biosciences) was used to analyse the percentage of cells within a population that are actively undergoing apoptosis. Propidium Iodide (PI) is a standard DNA-staining flow cytometric viability probe and is used to distinguish viable from nonviable cells. Cells that stain positive for V450 Annexin V and negative for PI are undergoing apoptosis. Cells that stain positive for both V450 Annexin V and PI are either in the end stages of apoptosis, are undergoing necrosis, or are already dead. Cells that stain negative for both V450 Annexin V and PI are alive and not undergoing measurable apoptosis.
For this reason these cells were chosen to evaluate the effects of these compounds on cell death. A 2 ml aliquot of growth medium containing 20,000 cells was seeded into each well of a 6 well plate. […] The growth medium was removed and retained and the cells washed with PBS followed by Incubation with 1 ml of Accutase (Life Technologies, Paisley, UK, Catalog Number A11105-01) per well for 15 mins. The original growth medium was then added back to neutralise the Accutase, and this centrifuged at 1,200 rpm for 5 mins to pellet the cells and this repeated twice with cold PBS. The cell pellet was finally re-suspended in 1× binding buffer (10×=0.1 M Hepes (pH 7.4), 1.4 M NaCl, 25 mM CaCl2) at a concentration of 10^6 cell/ml. A 100 μl aliquot containing 10^5 cells was removed and placed in a 5 ml culture tube and 5 μl of V450 Annexin V added plus 10 μl PI (50 μg/ml) added. The cells were gently mixed and incubated at room temperature for 15 min in the dark then 400 μl of 1× binding buffer was added prior to being analysed by flow cytometry using a Cyan ADP instrument (Beckman Coulter) and Summit software within one hour of the above procedure. The Annexin fluorochrome was excited using a 405 nm laser and the emission measured using a 450/50 nm bandpass filter. The PI was excited using a 488 nm laser and the emission detected using a 613/20 nm bandpass filter. The data was gated to select single cells using a plot of forward scatter against pulse width, and to exclude debris using forward scatter plotted against side scatter. All cytometry assays shown were the result of three separate cultures and intra-assay variability was also assessed by repeating the same drug treatment assay (1:1 Lop/Rit) three times. Unstained cells and cells stained separately with either V450 Annexin V or PI were used as controls to optimise compensation and gating of the cytometer.

[1] = cited from earlier work
[2] = test system: pre-invasive cells derived from the cervix; settings: cited from earlier work
SiHa cells = assay: CellTitre 96 AQ colorimetric cell growth assay; type: cell-based; settings: 5 μM, 0-72 hours
Description: SiHa cells were grown in RPMI plus 10% FBS and HeLa in DMEM plus 10% FBS. These were seeded at 2000 cells/well for HeLa and 5000 cells/well for SiHa in triplicate into standard tissue culture grade 96 well plates and incubated overnight at 37° C./5% CO2. […] At each time point 20 μl of CellTitre 96® AQ reagent (Promega) was then added to three separate wells per data point and the absorbance (OD490) read after 1 hour at 37° C. The CellTitre 96® AQ reagent is a water soluble MTS formazan version of the well-known MTT reagent which produces a colorimetric readout that is directly proportional to the number of viable cells present.

[3] = test system: more advanced invasive cervical disease; settings: cited from earlier work
glioma = settings: ritonavir alone; cited from earlier work
CIN and HPV infections = settings: cited from earlier work

SMILES: O=c1[nH]cc(F)c(=O)[nH]1 [5FU]
- effective against CIN2 lesions (CIN2 lesions): > 90%

SMILES: Nc1ccn(C[C@@H](CO)OCP(=O)(O)O)c(=O)n1 [Cidofovir]
- elimination of HPV infection (HPV infection): did not eliminate HPV infection
- clearance of CIN (CIN2/3): ~60%

SMILES: Cc1cccc(C)c1OCC(=O)N[C@@H](Cc1ccccc1)[C@@H](O)C[C@H](Cc1ccccc1)NC(=O)[C@H](C(C)C)N1CCCNC1=O (relative stereo) [lopinavir, [1S-[1R*(R*), 3R*, 4R*]]—N-[4-[(2,6-dimethylphenoxy0acetyl]amino]-3-hydroxy-5-phenyl-1-(phenylmethyl)pentyl]tetrahydro-alpha-(1-methylethyl)-2-oxo-1 (2H)-pyrimidineacetamide]
- R4 gate Mean (percentage of cells in quadrant R4, late stage apoptosis) (HeLa cells; 48 hrs, total dose 25 μM, concentrations (μM) in the label): 21.8000%
- Mean Difference to DMSO, R4 gate (Dunnett t) (HeLa cells; 48 hrs, versus DMSO control): 15.38*
- level of apoptosis compared between treatments (FIG. 13) (HeLa cells; total dose 25 μM, R4 and R6+R4): less effective than any of the combination treatments
- Mean Difference, R4 gate (Bonferonni) (HeLa cells; versus Lop20Rit5): −13.45*
- solubility in water [1]: virtually insoluble in water

SMILES: CC(C)c1nc(CN(C)C(=O)N[C@H](C(=O)N[C@@H](Cc2ccccc2)C[C@H](O)[C@H](Cc2ccccc2)NC(=O)OCc2cncs2)C(C)C)cs1 (relative stereo) [ritonavir, 10-Hydroxy-2-methyl-5-(1-methylethl)-1-[2-(1-methylethyl)-4-thiazolyl]-3,6-dioxo-8, 11bis(phenylmethyl)-2,4,7,12-tetraazatridecan-13-oic acid, 5-thiazolylmethylester, [5S-(5R*,8R*,10R8,11R*)]]
- activity against pre-invasive cells derived from the cervix [2]: has shown activity
- effect on cell growth (OD490) (SiHa cells): no effect
- efficacy against more advanced invasive cervical disease [3]: not effective
- effect against glioma in vivo (glioma): no effect

SMILES: CC(C)Cn1cnc2c(N)nc3ccccc3c21 [Imiquimod]
- effect against CIN and HPV infections (CIN and HPV infections; before and after LEEP, treatment >8 weeks): some effect
- side effects (CIN and HPV infections; direct application to the cervix): quite severe
